Columns and labels:
IFN-γ = IFN-γ level in OVA asthma model; assay type: in vivo, BALB/c mice; conditions: for IFN-γ level: lung tissue (table title)
Protocol: (§1) All experimental procedures were carried out in accordance with the NIH Guidelines for the Care and Use of Laboratory Animals. Specific pathogen-free (SPF) male BALB/c mice (6-7 weeks of age, 18-22 grams), routinely screened serologically for relevant respiratory pathogens, were maintained in an animal housing facility for 1 week before use and given access to food and water ad libitum. Animals were randomly assigned to the indicated experimental groups, and sensitized with two intraperitoneal (IP) injections (20 μg ovalbumin (OVA) emulsified in 2 mg aluminum hydroxide (an adjuvant) in 200 μl phosphate buffer saline (PBS), pH 7.4), on days 1 and 10.
(§2) After another week, the animals were challenged by exposure to ovalbumin (OVA) aerosol (1%, w/v, in PBS) for 30 minutes each day on days 17, 18 and 19, in order to elicit an inflammatory reaction in the lungs characterized by airway hyper-responsiveness (AHR), an influx of inflammatory cells (particularly eosinophils), and increased pulmonary levels of various cytokines and transforming growth factors, protein nitration and lipid peroxidation.
(§3) Bronchoalveolar lavage (BAL) fluid (also referred to herein as “BALf”) and bronchial submucosal inflammation are characteristic features of asthma. Mice were euthanized with an overdose of 50 mg/kg pentobarbital and ice-cold phosphate buffer saline (PBS) (0.6 ml) was instilled into the lungs. BAL fluid was obtained by three aspirations via tracheal cannulation, centrifuged, and the supernatant collected and stored at −70° C. Cell pellets were re-suspended in PBS and 100 μl aliquots placed onto slides and centrifuged (200 g, 4° C., 10 minutes) in a cytospin machine. Induction of oxidative stress was evaluated using a 2′,7′-dichlorofluorescein fluorescence assay, and total IgE, IgG2a, panel of cytokines, transforming growth factors, collagen, protein nitration and lipid peroxidation were measured using commercial kits according to the manufacturer's recommendations. A Sircol™ collagen assay kit was obtained from Biocolor Life Sciences Assays, a protein nitration assay kit was obtained from Abcam, and other assay kits were obtained from PeproTech Asia.
(§4) The efficacy of oral administration of 3-CP (1 weight percent in chow) during the sensitization period and/or challenge period was then compared to IP injection (˜300 mg/kg, 0.5 hour before the OVA challenge) or intranasal instillation (˜150 mg/kg, 0.5 hour before the OVA and 6 hours later) of 3-CP, as well as to dexamethasone treatment (1 mg/kg, 3 daily IP injections, 0.5 hour prior to the challenge with OVA aerosol).
(§5) In order to assess the effect of 3-CP on inflammatory signaling pathways, […] to procedures described hereinabove, upon oral, intranasal or IP administration of 3-CP.

TGF-β1 = TGF-β1 level in OVA asthma model; assay type: in vivo, BALB/c mice
Protocol: as §1, §2, §3, §4, §5

[1] = system: ovalbumin-induced asthma model; assay: Lung histopathology, H&E pathology scoring, OVA asthma model; assay type: in vivo, mice; conditions: FIG. 9
Protocol: Following aspiration of BAL as described hereinabove, a thoracotomy was performed, and the right main bronchus was tied. The left lung was fixed by means of intrabronchial infusion with 1 ml of 4% formaldehyde, and then immersed in fixative (10% (v/v) neutral buffered formalin) for 24 hours at 4° C. Transverse sections of the left lung were embedded in paraffin, and […] sections were stained with hematoxylin and eosin (H&E) by Hadassah Hospital Pathology Service (Jerusalem, Israel). In addition, periodic acid-Schiff (PAS) staining was performed on lung tissue, and the degree of mucin production was measured from PAS staining.
In order to evaluate the effect of 3-CP on lung pathology, animals in an ovalbumin-induced asthma model were treated with 3-CP, and killed by abdominal aortic transaction and exsanguination, according to procedures described hereinabove. Lung tissue was examined by hematoxylin and eosin (H&E) staining, the degree of mucin production was determined from periodic-acid-Schiff (PAS) staining.

[2] = system: bleomycin-induced pulmonary fibrosis; assay: Lung resistance in bleomycin pulmonary fibrosis model; assay type: in vivo, mice; conditions: 3-CP 150 mg/kg daily intranasal, 14 days, 64 mg/ml methacholine, FIG. 17
Protocol: One day after the final challenge, respiratory activity and airway hyper-responsiveness (AHR) of experimental animals were evaluated. Whole body plethysmographs for enhanced pause (Penh) measurements are often used for assessment of AHR. However, critics have questioned the validity of Penh measurements, which supposedly measure airway obstruction of live non-sedated mice, stating that it is likely to measure the distress of the animal rather than actual obstruction. […] In brief, mice were sedated with an intraperitoneal (IP) injection of xylazine hydrochloride and anaesthetized with IP injection of pentobarbital. Subsequently, the animals were tracheostomized using an 18 gauge cannula, ventilated with a FlexiVent™ apparatus (SCIREQ), and muscle paralysis was induced with pancuronium bromide. The mice were ventilated in a quasi-sinusoidal fashion with the following settings: a tidal volume of 10 ml/kg, maximum inflation pressure of […] (30 cm H2O), a positive end expiratory pressure (PEEP) of 3 millibar and a frequency of 150 per minute. […] Airway hyper-responsiveness (AHR) was determined by aerosolizing increasing concentrations of methacholine. […]
(§6) The effect of 3-CP on bleomycin-induced inflammation was evaluated by determining lung resistance, total inflammatory cell count, and TGF-β1 levels, according to procedures described hereinabove.

[3] = system: bleomycin-induced pulmonary fibrosis; assay: Inflammatory cell counts in BAL fluid, bleomycin pulmonary fibrosis model; assay type: in vivo, mice; conditions: 3-CP 150 mg/kg daily intranasal, 14 days, FIG. 18
Protocol: Bronchoalveolar lavage (BAL) fluid (also referred to herein as “BALf”) and bronchial submucosal inflammation are characteristic features of asthma. Mice were euthanized with an overdose of 50 mg/kg pentobarbital and ice-cold phosphate buffer saline (PBS) (0.6 ml) was instilled into the lungs. BAL fluid was obtained by three aspirations via tracheal cannulation, centrifuged, and the supernatant collected and stored at −70° C. Cell pellets were re-suspended in PBS and 100 μl aliquots placed onto slides and centrifuged (200 g, 4° C., 10 minutes) in a cytospin machine. Induction of oxidative stress was evaluated using a 2′,7′-dichlorofluorescein fluorescence assay, and total IgE, IgG2a, panel of cytokines, transforming growth factors, collagen, protein nitration and lipid peroxidation were measured using commercial kits according to the manufacturer's recommendations. A Sircol™ collagen assay kit was obtained from Biocolor Life Sciences Assays, a protein nitration assay kit was obtained from Abcam, and other assay kits were obtained from PeproTech Asia. […]
as §6

[4] = OVA IP-C: 3-CP intraperitoneal during challenge
[5] = OVA oral-C: 3-CP oral during challenge
[6] = OVA oral-S&C: 3-CP oral during sensitization and challenge
[7] = OVA oral-S: 3-CP oral during sensitization
[8] = oral administration vs IP injection

CC1(C)CC(C(N)=O)C(C)(C)N1[O] (centres unmarked) [3-CP, 3-Carbamoyl-2,2,5,5-tetramethyl-pyrrolidin-1-oxyl]
IFN-γ level (IFN-γ; [4]): 5.17 ± 0.19 ng/mg
IFN-γ level (IFN-γ; [5]): 5.32 ± 0.38 ng/mg
IFN-γ level (IFN-γ; [6]): 5.60 ± 0.22 ng/mg
IFN-γ level (IFN-γ; [7]): 3.78 ± 0.27 ng/mg
effect on OVA-induced decrease in the level of INF-γ (IFN-γ; lung tissue, FIG. 7C and Table 1): inhibited
modulating IFN-γ level, oral compared with IP 3-CP (IFN-γ; [8]): consistently more effective than IP injection of 3-CP
effect on OVA-induced increase in the level of TGF-β1 (TGF-β1; FIG. 7E and Table 1): inhibited
reducing TGF-β1 level, oral 3-CP compared with intranasal 3-CP and IP dexamethasone (TGF-β1; FIG. 7E and Table 1): more effective than intranasal instillation of 3-CP and IP injection of dexamethasone
TGF-β1 level (TGF-β1; [4]): 0.88 ± 0.05 ng/mg
TGF-β1 level (TGF-β1; [5]): 0.72 ± 0.08 ng/mg
TGF-β1 level (TGF-β1; [6]): 0.73 ± 0.07 ng/mg
TGF-β1 level (TGF-β1; [7]): 0.76 ± 0.02 ng/mg
modulating TGF-β1 level, oral compared with IP 3-CP (TGF-β1; [8]): consistently more effective than IP injection of 3-CP
effect on degree of lung pathology, H & E pathology scoring ([1]; 3-CP via all tested modes of delivery): reduced the degree of lung pathology
H & E lung pathology, 3-CP compared with dexamethasone [1]: more effective in this respect than treatment with dexamethasone
effect on bleomycin-induced increase in lung resistance [2]: completely reversed
effect on bleomycin-induced increase in inflammatory cell counts in BAL fluid [3]: significantly reduced

— patent US10441568B2, “Nitroxide radicals for the treatment of diseases of the respiratory tract” (priority 2015, dated 2019)
